Experimental data published in PMC8388125, “Kinetic and Structural Characterization of the Self-Labeling Protein Tags HaloTag7, SNAP-tag, and CLIP-tag” (Biochemistry, 2021).
Where a chain is given by its changes, count along the chain named.

Columns and labels:
[1] = molecular target: T1, SNAP-tag (SNAP) (Homo sapiens, UniProt P16455, A127T/A154D/C150Q/C62A/G131K/G132T/G153L/K125A/K32I/L33F/M134L/N157G/Q115S/Q116H/R128A/R135S/S151G/S152D/S159E); test: SNAP labeling kinetics via microplate reader (FP over time); type: biochemical
T1 construct: made in house; host or cells: E. coli BL21(DE3)-pLysS
T1 sequence (P16455 1-182 K32I/L33F/C62A/Q115S/Q116H/K125A/A127T/R128A/G131K/G132T/M134L/R135S/C150Q/S151G/S152D/G153L/A154D/N157G/S159E limits assumed): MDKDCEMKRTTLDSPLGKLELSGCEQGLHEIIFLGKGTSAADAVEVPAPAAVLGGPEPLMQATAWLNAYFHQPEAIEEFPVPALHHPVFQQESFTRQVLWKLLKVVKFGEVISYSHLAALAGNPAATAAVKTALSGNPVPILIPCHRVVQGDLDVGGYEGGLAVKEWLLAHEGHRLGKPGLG
How it was run: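 Fluorescent substrate at 20 nM was mixed with protein at 15–900 nM in SNAP-FP buffer, and labeling was followed as fluorescence polarization over time on a plate reader. Rate constants came from fitting a simplified kinetic model in DynaFit. Parameter errors were estimated by Monte Carlo, and substrate concentration was fitted for BG, CP and BC substrates.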

[2] = molecular target: T2, CLIP-tag (CLIP) (Homo sapiens, UniProt P16455, A121V/A127T/A154D/C150Q/C62A/G131N/G132T/G153S/K125A/K32I/L33F/M134L/M60I/N157P/Q115S/Q116H/R128A/R135D/S151G/S152D/S159L/Y114E); test: CLIP labeling kinetics via microplate reader (FP over time); type: biochemical; conditions: CLIP, plate reader, kinetic model 1
T2 construct: made in house; host or cells: E. coli BL21(DE3)-pLysS
T2 sequence (P16455 1-182 K32I/L33F/M60I/C62A/Y114E/Q115S/Q116H/A121V/K125A/A127T/R128A/G131N/G132T/M134L/R135D/C150Q/S151G/S152D/G153S/A154D/N157P/S159L limits assumed): T1 sequence (P16455 1-182 K32I/L33F/C62A/Q115S/Q116H/K125A/A127T/R128A/G131K/G132T/M134L/R135S/C150Q/S151G/S152D/G153L/A154D/N157G/S159E limits assumed) with M60I, Y114E, A121V, K131N, S135D, L153S, G157P, E159L
Experimental: (§1) Labeling kinetics of SNAP and CLIP substrates were measured by recording FP over time using a microplate reader in a manner analogous to that of HT7 labeling kinetics described above with the following changes. The fluorescent substrate concentration was fixed to 20 nM, and protein concentrations were varied from 15 to 900 nM. Measurements were performed in SNAP-FP buffer.
(§2) Kinetic data from microplate reader assays were fitted to a simplified kinetic model (eq 13) described by differential eqs 14–16 using DynaFit. The dead time of the measurements and baseline FP value were put in as fixed parameters. Standard deviations (normal distribution verified) and confidence intervals of fitted parameters were estimated with the Monte Carlo method with standard settings (N = 1000, 5% worst fits discarded). In the case of BG, CP, and BC kinetics, the substrate concentration was fitted by DynaFit to rule out quantification errors of the BG, CP, or BC fluorophores. Accurate fitting of the concentration was ensured by including conditions under which protein is limiting and no maximum FP value was reached.

[3] = molecular target: T3, CLIPf (CLIP^E30R) (Homo sapiens, UniProt P16455, A121V/A127T/A154D/C150Q/C62A/E30R/G131N/G132T/G153S/K125A/K32I/L33F/M134L/M60I/N157P/Q115S/Q116H/R128A/R135D/S151G/S152D/S159L/Y114E); test: CLIPf labeling kinetics via microplate reader (FP over time); type: biochemical; conditions: plate reader
T3 construct: made in house; host or cells: E. coli BL21(DE3)-pLysS
T3 sequence (P16455 1-182 E30R/K32I/L33F/M60I/C62A/Y114E/Q115S/Q116H/A121V/K125A/A127T/R128A/G131N/G132T/M134L/R135D/C150Q/S151G/S152D/G153S/A154D/N157P/S159L limits assumed): T1 sequence (P16455 1-182 K32I/L33F/C62A/Q115S/Q116H/K125A/A127T/R128A/G131K/G132T/M134L/R135S/C150Q/S151G/S152D/G153L/A154D/N157G/S159E limits assumed) with E30R, M60I, Y114E, A121V, K131N, S135D, L153S, G157P, E159L
Experimental: as §1, §2

[4] = molecular target: T4, hAGT (human O^6-alkylguanine-DNA alkyltransferase) (Homo sapiens, UniProt P16455); test: hAGT labeling kinetics via microplate reader (FP over time); type: biochemical; conditions: hAGT vs CLIP
T4 construct: StrepTag-II (N); enterokinase cleavage site (N); His10 (C); made in house; host or cells: E. coli BL21(DE3)-pLysS
T4 sequence (P16455 1-207): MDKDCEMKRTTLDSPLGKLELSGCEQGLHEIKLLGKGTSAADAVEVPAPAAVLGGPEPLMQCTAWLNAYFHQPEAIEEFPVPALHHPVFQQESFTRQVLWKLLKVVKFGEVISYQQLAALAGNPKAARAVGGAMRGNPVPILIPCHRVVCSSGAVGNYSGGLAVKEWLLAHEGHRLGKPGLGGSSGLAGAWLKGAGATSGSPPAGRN
Experimental: as §1, §2

[5] = molecular target: T5, HaloTag7 (HT7) (Rhodococcus sp., UniProt P59336, A155T/A167V/A224E/C128F/C176G/D78G/E160K/E257K/G292T/H272N/K175M/K195N/L47V/L88M/N227D/P291S/S2A/S58T/T264A/V172T/Y273L/Y87F); test: HT7 competitive labeling kinetics against CA-Alexa488; type: biochemical; conditions: HT7, nonfluorescent substrates, competition with CA-Alexa488, 37 °C
T5 construct: made in house; host or cells: E. coli BL21(DE3)-pLysS
Experimental: Competitive kinetics were measured by recording FP over time using a microplate reader (Spark20M, Tecan). The final concentrations of CA-Alexa488 (50 nM) and HT7 protein (200 nM) remained constant with varying concentrations of nonfluorescent substrates (0–1 μM) in activity buffer supplemented with 0.5 g/L BSA. Assays were performed in black nonbinding flat bottom 96-well plates with a final reaction volume of 200 μL. Labeling reactions were started by adding the HT7 protein to wells containing CA-Alexa488 and nonfluorescent substrates using an electronic 96-channel pipettor (Integra Bioscience Corp., Hudson, NH). The FP of free CA-Alexa488 was measured to obtain a baseline.
Data were fitted to a simplified kinetic competition model (eqs 19 and 20) described by differential eqs 21–25 using DynaFit. The dead time of the measurements and baseline FP value were put in as fixed parameters. Standard deviations (normal distribution verified) and confidence intervals of fitted parameters were estimated with the Monte Carlo method with standard settings (N = 1000, 5% worst fits discarded). [drawing 19] 19 [drawing 20] 20 where P is the SLP protein, S is the fluorescent SLP substrate, I is the nonfluorescent SLP substrate (inhibitor), PS is the protein–fluorescent substrate conjugate, and PI is the protein–nonfluorescent substrate conjugate. [drawing 21] 21 [drawing 22] 22 [drawing 23] 23 [drawing 24] 24 [drawing 25] 25

[6] = molecular target: T6, HT7^D106A (Rhodococcus sp., UniProt P59336, A155T/A167V/A224E/C128F/C176G/D106A/D78G/E160K/E257K/G292T/H272N/K175M/K195N/L47V/L88M/N227D/P291S/S2A/S58T/T264A/V172T/Y273L/Y87F); test: Affinity of HT7^D106A for CA-Ac via FP competition assay against CA-TMR; type: binding
T6 construct: made in house; host or cells: E. coli BL21(DE3)-pLysS
Experimental: The binding affinity of HT7^D106A for CA-Ac was determined by a fluorescence polarization competition assay against CA-TMR. Therein, 5 μM protein and 50 nM CA-TMR were titrated against CA-Ac concentrations ranging from 80 μM to 10 mM in activity buffer supplemented with 0.5 g/L BSA. Assays were performed in low-volume nonbinding black 384-well plates (Corning Inc.) with a final volume of 20 μL using a microplate reader (Spark20M, Tecan). Obtained FP values were averaged and fitted to a four-parameter logistic curve (eq 3) to estimate the I50 value. The lower plateau was fixed to the measured FP value of the free dye to improve the fit. The dissociation constant of CA-Ac was calculated as described by Rossi and Taylor.[35] [drawing 3] 3 where FPmin is the fluorescence polarization of the free fluorophore (lower plateau), FPmax is the maximal fluorescence polarization of the fully bound fluorophore (upper plateau), I50 is the half-maximal effective concentration, and [ligand] is the ligand concentration.
(§3) Free binding energies were calculated from Kd values according to eq 4: [drawing 4] 4 where ΔG is the free binding energy, R is the universal gas constant, T is the temperature, and Kd is the dissociation constant.

[7] = molecular target: T6, HT7^D106A; test: Affinity of HT7 for methyl-amide fluorophores by fluorescence polarization; type: binding
Experimental: Binding affinities of HT7 for methyl-amide fluorophores were determined by fluorescence polarization in a manner analogous to that of CA substrates described above with the following changes. Fluorescent substrates were used at a final concentration of 50 nM, and measurements were performed at room temperature.
as §3

[8] = molecular target: T7, SNAP^C145A (Homo sapiens, UniProt P16455, A127T/A154D/C145A/C150Q/C62A/G131K/G132T/G153L/K125A/K32I/L33F/M134L/N157G/Q115S/Q116H/R128A/R135S/S151G/S152D/S159E); test: Affinity of SNAP^C145A for BG and CP fluorescent substrates by fluorescence polarization; type: binding; conditions: SNAP^C145A, fluorescence polarization, room temperature
T7 construct: made in house; host or cells: E. coli BL21(DE3)-pLysS
T7 sequence (P16455 1-182 K32I/L33F/C62A/Q115S/Q116H/K125A/A127T/R128A/G131K/G132T/M134L/R135S/C145A/C150Q/S151G/S152D/G153L/A154D/N157G/S159E limits assumed): T1 sequence (P16455 1-182 K32I/L33F/C62A/Q115S/Q116H/K125A/A127T/R128A/G131K/G132T/M134L/R135S/C150Q/S151G/S152D/G153L/A154D/N157G/S159E limits assumed) with C145A
Experimental: Binding affinities of SNAP^C145A and SNAPf^C145A for BG-Alexa488, CP-Alexa488, BG-fluorescein, CP-fluorescein, BG-MAP555, BG-JF549, BG-TMR(6), BG-TMR(5), CP-TMR, BG-CPY(6), BG-CPY(5), CP-CPY, BG-SiR, CP-SiR, BG-JF646, BG-Atto565, BG-Atto590, BG-sulfo-Cy3, BG-Cy3, BG-sulfo-Cy5, and BG-Cy5 were determined by fluorescence polarization in a manner analogous to that for HT7 affinities for CA substrates described above with the following changes. Fluorescent substrates were titrated at a final concentration of 50 nM against protein concentrations ranging from 0 to 250 μM at room temperature using 0.1 g/L BSA and 1 mM DTT (SNAP-FP buffer). The FP value of each dye fully reacted with the native SNAP/SNAPf was used to improve fitting of the upper plateau of the curves by adding an extra data point at a protein concentration of 0.005 M.

T6 sequence (P59336 other isoform, or with tags, fused parts or gaps with the stated changes): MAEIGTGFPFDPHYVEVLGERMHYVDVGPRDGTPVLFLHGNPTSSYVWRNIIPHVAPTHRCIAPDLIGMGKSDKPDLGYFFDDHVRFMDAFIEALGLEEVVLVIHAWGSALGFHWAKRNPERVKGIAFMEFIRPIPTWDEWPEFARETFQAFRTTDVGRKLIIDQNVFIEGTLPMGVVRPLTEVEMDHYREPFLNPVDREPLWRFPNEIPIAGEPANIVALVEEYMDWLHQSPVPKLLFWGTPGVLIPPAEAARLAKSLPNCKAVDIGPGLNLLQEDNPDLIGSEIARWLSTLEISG
T5 sequence (P59336 other isoform, or with tags, fused parts or gaps with the stated changes): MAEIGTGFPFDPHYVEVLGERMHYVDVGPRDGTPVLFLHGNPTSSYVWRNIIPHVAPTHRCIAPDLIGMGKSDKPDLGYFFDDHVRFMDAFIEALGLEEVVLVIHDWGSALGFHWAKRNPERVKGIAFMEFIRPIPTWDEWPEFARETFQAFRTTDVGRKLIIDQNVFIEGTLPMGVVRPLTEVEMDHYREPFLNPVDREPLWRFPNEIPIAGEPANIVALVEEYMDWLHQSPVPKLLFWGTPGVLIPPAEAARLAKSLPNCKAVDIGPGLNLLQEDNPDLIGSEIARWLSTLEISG

CN(C)c1ccc2c(-c3cc(C(=O)NCc4ccc(COc5nccc(N)n5)cc4)ccc3C(=O)[O-])c3ccc(=[N+](C)C)cc-3oc2c1 [BC-TMR]
times slower reaction of SNAP than with BG-TMR ([1]; SNAP cross-reactivity): more than 1000 times | kapp (value ± standard deviation) ([1]; SNAP, plate reader, kinetic model 1): (3.20 ± 0.02) × 10^2 M^–1 s^–1 | kapp (value ± standard deviation) [2]: (1.85 ± 0.01) × 10^4 M^–1 s^–1 | kapp [3]: (3.37 ± 0.01) × 10^4 M^–1 s^–1 | times slower reaction with hAGT than with CLIP [4]: 25000 times

CC(=O)NCCOCCOCCCCCCCl [CA-Ac, acetylated chloroalkane]
kapp (value ± standard deviation) [5]: (1.53 ± 0.02) × 10^3 M^–1 s^–1 | Kd [6]: 2620 µM | free binding energy (ΔG) ([6]; HT7^D106A, calculated from Kd): −15.3 kJ mol^–1

CNC(=O)c1ccc(C(=O)[O-])c(-c2c3ccc(=[N+](C)C)cc-3oc3cc(N(C)C)ccc23)c1 [meAm-TMR]
free binding energy (ΔG) ([7]; calculated from Kd): −16.7 kJ mol^–1 | Kd ([7]; fluorescence polarization, room temperature): 1510 µM | Kd^C145A [8]: no affinity could be measured
